From US11576875B2 (priority 2017, dated 2023)
“Also recorded” adds a separate entry of the source.

How the values were obtained:
[1] = system: mouse myoblast cell line (C2C12 cells); assay: Thickness of myotubes differentiated from mouse myoblasts, muscle reduction induced by dexamethasone; type: cell-based
Method: First, differentiation of myotubes from mouse myoblasts was induced. A mouse myoblast cell line (C2C12 cells) was purchased from ATCC (Manassas, Va., USA) and used. The purchased cells were inoculated in 10% fetal bovine serum media (Gibco-BRL) and incubated in a 5% CO2 incubator at 37° C. When the confluency of the cells attached to the media became 80% or higher, the cells were transferred to 2% horse serum media (Gibco-BRL) to differentiate myoblasts into myotubes.
For two days (48 hours) from day 4 after differentiation into myotubes started to be induced, the media were treated with 50 μM dexamethasone (dexa; Sigma Aldrich, USA) to induce muscle reduction. […] As a non-treated control, cells treated with only dexamethasone and not treated with ethyl vanillin were used.
After completion of the incubation, the cells were washed twice with phosphate buffered saline (PBS), and then fixed by treatment with 100% methanol for 10 minutes. […]
The stained myotubes were photographed using a fluorescence microscope (IX 71, Olympus) at a magnification of 10×, and then analyzed using image J software (USA). Six sections were randomly selected from each well and micrographed, and the thickness of at least 100 myotubes from each well was analyzed (three repetitions/group).

p-4E-BP1 protein = assay: Protein expression level by Western blotting in myotubes; type: cell-based, mouse; settings: ethyl vanillin with dexamethasone vs dexamethasone control
Method: (§1) After completing the incubation of all experimental groups and the control, the media were removed and a lysis buffer was added to each well to lyse the cells. As the lysis buffer, a 100 mM Tris-HCl buffer solution (pH 7.4) containing 5 mM EDTA, 50 mM sodium pyrophosphate, 50 mM NaF, 100 mM orthovanadate, 1% Triton X-100, 1 mM phenylmethanesulfonyl fluoride (PMSF), […] of aprotinin, 1 μg/mL of pepstatin A, and 1 μg/mL of leupeptin was used. After lysing the cells, the lysates were obtained, and then centrifuged at 1,300×g and 4° C. for 20 minutes, and then the middle layer was taken as a protein layer in the cell extract. For the protein layer, the concentrations of proteins were quantified by the Bradford method. 40 μg of the quantified proteins were electrophoresed by SDS-PAGE, and then the separated proteins were transferred to nitrocellulose membranes (Amersham, Buckinghamshire, UK). Then, the membranes were washed three times for 10 minutes using a Tris-buffered saline and Tween 20 solution (TBS-T), followed by blocking using 10% skim milk for 60 minutes. […] Bands visualized on the X-ray film were scanned and quantified using Quantity One analysis software (Bio-Rad).

p-p70S6K1 protein = assay: as above; type: cell-based, mouse; settings: ethyl vanillin with dexamethasone vs dexamethasone control
Method: as §1

[2] = cited from earlier work
[3] = system: animal model with high-fat-diet-induced muscle loss; assay: Four limb hanging test in mice fed a high-fat diet; type: in vivo, C57BL/6N mice; settings: 0.2% ethyl vanillin in high-fat diet, week 10
Method: A normal diet group (Chow) was fed commercial rodent chow. Ethyl vanillin was purchased from Sigma-Aldrich. [table] To measure the limb muscle strength of mice, the time that the mice hung upside down using their four feet was measured at week 10 of breeding. The time (seconds) that the mice hung upside down in a cage equipped with a wire mesh cover (diameter<0.5 cm) (20×30×50 cm, Jeung-Do Bio & Plant Co., Ltd, Korea) was measured a total of three times, and a rest period of 30 minutes or longer was given between measurements. Experimental results were obtained by multiplying hanging time (sec) by body weight (kg). The statistical analysis of all data was performed using the Statistical Package for the Social Sciences (SPSS version 21.0, IBM, Armonk, N.Y., USA), and analysis values were expressed as mean±SEM, and a significant difference between groups was verified by ANOVA.

[4] = system: animal model with high-fat-diet-induced muscle loss; assay: Grip test in mice fed a high-fat diet; type: in vivo, C57BL/6N mice; settings: 0.2% ethyl vanillin in high-fat diet, week 10
Method: A normal diet group (Chow) was fed commercial rodent chow. Ethyl vanillin was purchased from Sigma-Aldrich. [table] To measure the grip strength of mice, grip strength was measured using four feet of the mice at week 10 of breeding. A force (N) for mice to hold a wire mesh was measured a total of five times using a grip strength measurer equipped with a wire mesh (20×10 cm) (Daejong Instrument Industry Co., Ltd., Korea), and a rest period of 1 minute or longer was given between measurements. Experimental results were obtained by dividing the measured force (N) by body weight (kg). The statistical analysis of all data was performed using the Statistical Package for the Social Sciences (SPSS version 21.0, IBM, Armonk, N.Y., USA), and analysis values were expressed as mean±SEM, and a significant difference between groups was verified by ANOVA.

[5] = system: animal model with high-fat-diet-induced muscle loss; assay: Fiber diameter of tibialis anterior muscle tissue (H&E staining); type: in vivo, C57BL/6N mice; settings: 0.2% ethyl vanillin in high-fat diet, 10 weeks
Method: A normal diet group (Chow) was fed commercial rodent chow. Ethyl vanillin was purchased from Sigma-Aldrich. [table] Muscle tissues of mice were extracted, fixed in 10% formalin, and then stained with hematoxylin and eosin (H&E) after requesting Korea CFC (Gyeonggi-do, Korea) to do so, and observed using an optical microscope (IX71, Olympus, JPN) and photographed using a digital camera (DP71, Olympus, JPN). The statistical analysis of all data was performed using the Statistical Package for the Social Sciences (SPSS version 21.0, IBM, Armonk, N.Y., USA), and analysis values were expressed as mean±SEM, and a significant difference between groups was verified by ANOVA.

MaFbx/atrogin 1 = assay: mRNA expression level by RT-PCR in myotubes; type: cell-based, mouse; settings: ethyl vanillin with dexamethasone vs dexamethasone control
Method: (§2) After completing the incubation of all experimental groups and the control, cells of each group were obtained, 334 μl of a TRIzol solution per 1×10^7 myotubes was added and replaced, followed by centrifugation at 12,000×g and 4° C. for 10 minutes. Thereafter, the supernatant was transferred to a new tube and 67 μl of chloroform was added thereto, followed by mixing by vortexing. The supernatant in the mixed solution was transferred again to a new tube, and isopropanol was added thereto in a ratio of 1:1 (v:v) of isopropanol to supernatant, followed by vigorous shaking about 10 times and being left at room temperature for 15 minutes. Once again, centrifugation was carried out at 12,000×g and 4° C. for 10 minutes to remove a supernatant, and 1 ml of 70% ethanol was added to the precipitate, followed by centrifugation at 7,500×g and 4° C. for 5 minutes to remove the ethanol, and the tubes were dried at room temperature for 15 minutes. Finally, precipitated RNA was dissolved in nuclease free water to obtain RNA extracted from the cells. The concentration of RNA was identified by measuring absorbance at wavelengths of 260 nm and 280 nm using a UV/VIS spectrometer, and was subjected to electrophoresis to confirm the integrity of RNA samples.
(§3) Reverse transcription-polymerase chain reaction (RT-PCR) was performed using the prepared RNA samples. The obtained RNA samples were used as templates and reverse transcription was performed using oligo dT primers and SuperScript Reverse Transcriptase (GIBCO BRL, Gaithersburg, Md., USA) to synthesize cDNA. The synthesized cDNA was used as a template and PCR was performed using primer pairs (forward primers and reverse primers) shown in Table 1 below. Each primer was constructed based on the 5′ and 3′ flanking sequence of cDNA of the template gene to be amplified. After PCR was completed, 1 μl of each amplified PCR product was subjected to electrophoresis on agarose gel to confirm generated DNA bands.

MuRF1 = assay: mRNA expression level by RT-PCR in myotubes; type: cell-based, mouse; settings: ethyl vanillin with dexamethasone vs dexamethasone control
Method: as §2, §3

Myostatin = assay: mRNA expression level by RT-PCR in myotubes; type: cell-based, mouse; settings: ethyl vanillin with dexamethasone vs dexamethasone control
Method: as §2, §3

With `CCOc1cc(C=O)ccc1O` [ethyl vanillin, 3-ethoxy-4-hydroxybenzaldehyde] the “increase in thickness of myotubes compared to reduction caused by dexamethasone” value ([1]; 100 μM ethyl vanillin along with 50 μM dexamethasone, 48 hours, C2C12 myotubes) was 49%, the “number of myotubes of mouse myoblasts reduced by dexamethasone” value ([1]; treated with ethyl vanillin, vs dexamethasone) was “significantly increased” and the “amount of p-4E-BP1 protein” value (p-4E-BP1 protein) was “significantly increases”. For the same compound, the “amount of p-p70S6K1 protein” value (p-p70S6K1 protein) was “significantly increases”, the solubility in chloroform ([2]; chloroform) was “soluble” and the solubility in ethanol ([2]; ethanol) was “soluble”. For the same compound, the solubility in water ([2]; water) was “insoluble”, the “increase in holding impulse (hanging time x body weight) vs high-fat diet” value [3] was 147% and the “increase in grip strength (force/body weight) vs high-fat diet” value [4] was 27%. For the same compound, the “increase in fiber diameter of the tibialis anterior vs high-fat diet” value [5] was 57%, the “expression of MaFbx/atrogin 1 (mRNA)” value (MaFbx/atrogin 1) was “significantly reducing; also recorded: significantly reduces” and the “expression of MuRF1 (mRNA)” value (MuRF1) was “significantly reducing; also recorded: significantly reduces”. The “expression of Myostatin (mRNA)” value (Myostatin) was “significantly reducing”.
